Data from PMC6118387, “In silico drug absorption tract: An agent-based biomimetic model for human oral drug absorption” (PLoS ONE, 2018).
Several values for one entry are separate records, joined by “and”; a condition that tells them apart may be missing. Equal entries are not always repeated. Where two headings read alike, the source gives them in different places.

Tests used:
[1] = midazolam, literature referent value, cited from earlier work
[2] = Clinical bioequivalence study: plasma concentrations (LC-MS-MS) and noncompartmental PK after oral tablet; assay type: in vivo, human
[3] = model drug parameter fixed to literature reported value; cited from earlier work
[4] = Referent clinical, midazolam 15 mg tablet oral, N = 15, mean ±1 SD
[5] = human, plasma, Referent clinical, midazolam 15 mg tablet oral, N = 15, mean ±1 SD

For `Cc1ncc2n1-c1ccc(Cl)cc1C(c1ccccc1F)=NC2` [Midazolam, midazolam], the “F (absolute oral bioavailability)” value [1] is given as 31–72%, the “Fa × Fg” value [1] is given as 48–76% and the Fh [1] is given as 36–57%. For the same molecule, the “Fa × Fg” value ([1]; listed as midazolam) was 48–76%, the Fh ([1]; listed as midazolam) was 36–57% and the CL/F [2, 4] was 57.72 ± 19.31 L/h. It also gave a V/F [2, 4] of 205.20 ± 56.75 L, a Tmax ([2]; Referent clinical, midazolam 15 mg tablet oral, N = 15, median) of 30 min and a Cmax ([2]; human, plasma, oral, 15 mg, midazolam, peak of the mean clinical concentration-time profile over 24 hours) of 90.2 ng/mL. The concentration at 0 h ([2]; human, plasma, po, 15 mg, midazolam 15 mg oral, plasma, mean (±1 SD) N=15, read-out: Concentration, Referent) was 0 ng/mL, the concentration at 0 h ([2]; human, plasma, po, 15 mg, midazolam 15 mg oral, plasma, one value per subject (columns A1-A8, B1-B7), read-out: Concentration, individual subjects) was 0 ng/mL and the concentration at 0.25 h ([2]; human, plasma, po, 15 mg, midazolam 15 mg oral, plasma, 0.25 h, mean (±1 SD) N=15, read-out: Concentration, Referent) was 12.2 ± 14.4 ng/mL. For the same molecule, the concentration at 0.5 h ([2]; human, plasma, po, 15 mg, midazolam 15 mg oral, plasma, 0.5 h, mean (±1 SD) N=15, read-out: Concentration, Referent) was 90.2 ± 47.6 ng/mL, the concentration at 1 h ([2]; human, plasma, po, 15 mg, midazolam 15 mg oral, plasma, 1 h, mean (±1 SD) N=15, read-out: Concentration, Referent) was 56.6 ± 22.6 ng/mL and the concentration at 1.5 h ([2]; human, plasma, po, 15 mg, midazolam 15 mg oral, plasma, 1.5 h, mean (±1 SD) N=15, read-out: Concentration, Referent) was 46.8 ± 12.5 ng/mL. It also gave a concentration at 2 h ([2]; human, plasma, po, 15 mg, midazolam 15 mg oral, plasma, 2 h, mean (±1 SD) N=15, read-out: Concentration, Referent) of 47.8 ± 19.1 ng/mL, a concentration at 2.5 h ([2]; human, plasma, po, 15 mg, midazolam 15 mg oral, plasma, 2.5 h, mean (±1 SD) N=15, read-out: Concentration, Referent) of 41.1 ± 15.1 ng/mL and a concentration at 3 h ([2]; human, plasma, po, 15 mg, midazolam 15 mg oral, plasma, 3 h, mean (±1 SD) N=15, read-out: Concentration, Referent) of 40.3 ± 26.1 ng/mL. For the same molecule, the concentration at 4 h ([2]; human, plasma, po, 15 mg, midazolam 15 mg oral, plasma, 4 h, mean (±1 SD) N=15, read-out: Concentration, Referent) was 32.4 ± 21.1 ng/mL, the concentration at 6 h ([2]; human, plasma, po, 15 mg, midazolam 15 mg oral, plasma, 6 h, mean (±1 SD) N=15, read-out: Concentration, Referent) was 15.6 ± 9.4 ng/mL and the concentration at 8 h ([2]; human, plasma, po, 15 mg, midazolam 15 mg oral, plasma, 8 h, mean (±1 SD) N=15, read-out: Concentration, Referent) was 9.33 ± 5.73 ng/mL. The concentration at 10 h ([2]; human, plasma, po, 15 mg, midazolam 15 mg oral, plasma, 10 h, mean (±1 SD) N=15, read-out: Concentration, Referent) was 5.75 ± 4.06 ng/mL, the concentration at 12 h ([2]; human, plasma, po, 15 mg, midazolam 15 mg oral, plasma, 12 h, mean (±1 SD) N=15, read-out: Concentration, Referent) was 3.48 ± 2.75 ng/mL and the concentration at 24 h ([2]; human, plasma, po, 15 mg, midazolam 15 mg oral, plasma, 24 h, mean (±1 SD) N=15, read-out: Concentration, Referent) was 0.41 ± 0.63 ng/mL. It also gave an AUC [2, 5] of 296 ± 126 ng·h/mL, a Cmax [2, 5] of 101 ± 33 ng/mL and a k el [2, 5] of 7.78e-05 s⁻¹. For the same molecule, the “Concentration, individual subjects” value ([2]; midazolam 15 mg oral, plasma, 2.5 h, one value per subject (columns A1-A8, B1-B7)) was 54.91 ng/mL and 40.38 ng/mL and 25.80 ng/mL and 40.78 ng/mL and 31.74 ng/mL and 48.76 ng/mL and 34.21 ng/mL and 20.63 ng/mL and 33.92 ng/mL and 30.24 ng/mL and 57.61 ng/mL and 24.84 ng/mL and 35.19 ng/mL and 58.33 ng/mL and 78.77 ng/mL, the “Concentration, individual subjects” value ([2]; midazolam 15 mg oral, plasma, 3 h, one value per subject (columns A1-A8, B1-B7)) was 52.06 ng/mL and 27.73 ng/mL and 21.71 ng/mL and 25.74 ng/mL and 36.83 ng/mL and 69.41 ng/mL and 35.36 ng/mL and 17.14 ng/mL and 26.32 ng/mL and 22.37 ng/mL and 41.78 ng/mL and 21.67 ng/mL and 38.29 ng/mL and 47.32 ng/mL and 120.12 ng/mL and the “Concentration, individual subjects” value ([2]; midazolam 15 mg oral, plasma, 4 h, one value per subject (columns A1-A8, B1-B7)) was 42.50 ng/mL and 20.80 ng/mL and 19.34 ng/mL and 20.60 ng/mL and 28.96 ng/mL and 77.03 ng/mL and 23.38 ng/mL and 14.36 ng/mL and 20.65 ng/mL and 15.37 ng/mL and 24.77 ng/mL and 22.90 ng/mL and 30.75 ng/mL and 41.37 ng/mL and 83.44 ng/mL. For the same molecule, the “Concentration, individual subjects” value ([2]; midazolam 15 mg oral, plasma, 6 h, one value per subject (columns A1-A8, B1-B7)) was 24.75 ng/mL and 8.47 ng/mL and 11.09 ng/mL and 8.46 ng/mL and 15.04 ng/mL and 29.67 ng/mL and 12.43 ng/mL and 6.69 ng/mL and 9.53 ng/mL and 10.09 ng/mL and 12.41 ng/mL and 7.25 ng/mL and 15.05 ng/mL and 24.91 ng/mL and 38.15 ng/mL, the “Concentration, individual subjects” value ([2]; midazolam 15 mg oral, plasma, 8 h, one value per subject (columns A1-A8, B1-B7)) was 14.78 ng/mL and 4.58 ng/mL and 5.87 ng/mL and 3.98 ng/mL and 6.08 ng/mL and 15.63 ng/mL and 6.16 ng/mL and 4.20 ng/mL and 7.07 ng/mL and 8.11 ng/mL and 11.11 ng/mL and 3.58 ng/mL and 8.96 ng/mL and 17.42 ng/mL and 22.42 ng/mL and the “Concentration, individual subjects” value ([2]; midazolam 15 mg oral, plasma, 10 h, one value per subject (columns A1-A8, B1-B7)) was 9.22 ng/mL and 2.05 ng/mL and 4.27 ng/mL and 2.24 ng/mL and 3.91 ng/mL and 8.93 ng/mL and 3.37 ng/mL and 2.53 ng/mL and 5.05 ng/mL and 3.40 ng/mL and 6.04 ng/mL and 1.38 ng/mL and 5.79 ng/mL and 13.69 ng/mL and 14.29 ng/mL. For the same molecule, the “Concentration, individual subjects” value ([2]; midazolam 15 mg oral, plasma, 12 h, one value per subject (columns A1-A8, B1-B7)) was 5.37 ng/mL and 1.26 ng/mL and 2.53 ng/mL and 1.54 ng/mL and the “logP, In silico Logarithm of partition coefficient” value [3] was 3.6.
